Measurements reported in patent publication US8304447B2, “2-acylaminopropoanol-type glucosylceramide synthase inhibitors” (Genzyme Corporation, priority 2007, dated 2012).
Where two headings read alike, the source gives them in different places.

System: GM3
Assay: GM3 Elisa assay
Assay type: cell-based
Settings: B16-FO cells, read-out: IC50_uM_Mean
Outline: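 Cellular GM3 ELISA: fixed cells probed with monoclonal anti-GM3 (NeuAc), HRP-conjugated anti-IgM and fluorogenic Quantablu substrate, read at Ex 325/Em 420. Cells were B16-FO, treated 2 days after a 6 h attachment on collagen-coated wells.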

[1] = 48 h, Table 2, 2 days incubation

Row | Compound | IC50 (Table 3 (IC 50 Values)) | other results
1 | O=C(CCCCCCCCCCCc1cccnc1)N[C@H](CN1CCCC1)[C@H](O)c1ccc2c(c1)OCCO2 [Compound 305] | – | IC50 (48 h, Table 1, 2 days incubation): ≤ 100 nM
2 | CCCCCCCCCCCCCCCC(=O)N[C@H](CN1CCCC1)[C@H](O)c1ccc(O)cc1 [Compound 309] | – | IC50 [1]: ≤ 100 nM
3 | CCCCCCCC(=O)N[C@H](CNCCCC)[C@H](O)c1ccc2c(c1)OCCO2 [Compound 310] | – | IC50 [1]: 1000 to 3000 nM
4 | CCCCCCCC(=O)N[C@H](CN1CCCC1)[C@H](O)CCCCCCC [Compound 311] | – | IC50 [1]: 1000 to 3000 nM
5 | CCCCCCCCCCCCCCCC(=O)N[C@H](CN1CCCC1)[C@H](O)CCCCCCC [Compound 312] | – | IC50 [1]: 100 to 1000 nM
6 | CCCCCCCC(=O)N[C@H](CN1CCC(CN2CCCC2)C1)[C@H](O)c1ccc2c(c1)OCCO2 (stereo partly shown) [Compound 313] | – | IC50 [1]: ≤ 100 nM
7 | CCCCCCCC(=O)N[C@H](CN1C(C)CCC1C)[C@H](O)c1ccc2c(c1)OCCO2 (stereo partly shown) [Compound 314] | – | IC50 [1]: 1000 to 3000 nM
8 | CCCCCCCC(=O)N[C@H](CN1CCCC1)[C@H](OC)c1ccc2c(c1)OCCO2 [Compound 315] | – | IC50 [1]: 100 to 1000 nM
9 | CCCCCCCC(=O)N[C@H](CN1CCCC1CN1CCCC1)[C@H](O)c1ccc2c(c1)OCCO2 (stereo partly shown) [Compound 316] | – | IC50 [1]: 3000 to 10000 nM
10 | CCCCCCCCCCCCCCCC(=O)N[C@H](CN1CCOCC1)[C@H](O)c1ccccc1 [Compound 317] | – | IC50 [1]: 100 to 1000 nM
11 | CCCCCCCC(=O)N[C@H](CN1CCCC1)[C@H](O)c1cc(O)c2c(c1)OCCO2 [Compound 318] | – | IC50 [1]: 100 to 1000 nM
12 | CCCCCCCC(=O)N[C@H](CN1CCCC1)[C@H](O)c1cc(OC)c2c(c1)OCCO2 [Compound 319] | – | IC50 [1]: 100 to 1000 nM
13 | CCCCCCCC(=O)N[C@H](CN1CCCC1)[C@H](O)c1ccc(OC)cc1 [Compound 320, Octanoic acid [2-hydroxy-2(4-methoxy-phenyl)-1-Pyrrolidin1-ylmethyl-ethyl]-amide] | – | IC50 [1]: ≤ 100 nM
14 | CCCCCCCC(=O)N[C@H](CN1CCCC1)[C@H](O)c1ccc(OC)c(OC)c1 [Compound 321] | – | IC50 [1]: 1000 to 3000 nM
15 | CCCCCCCC(=O)N[C@H](CN1CCC(F)C1)[C@H](O)c1ccc2c(c1)OCCO2 (stereo partly shown) [Compound 322] | – | IC50 [1]: 100 to 1000 nM
16 | CCCCCCCC(=O)N[C@H](CN1CCCC1)[C@H](O)c1ccc(OC)c(F)c1 [Compound 340] | 100 to 1000 nM | –
17 | COc1ccc(OCCC(=O)N[C@H](CN2CCCC2)[C@H](O)c2ccc(OC)c(F)c2)cc1 [Compound 341] | ≤ 100 nM | –
18 | COc1ccc([C@@H](O)[C@@H](CN2CCCC2)NC(=O)Cc2ccc(OC(F)(F)F)cc2)cc1F [Compound 342] | 100 to 1000 nM | –
19 | COc1ccc(C(=O)CCCC(=O)N[C@H](CN2CCCC2)[C@H](O)c2ccc(OC)c(F)c2)cc1 [Compound 343] | 100 to 1000 nM | –
20 | COc1ccc(C(=O)CCCCC(=O)N[C@H](CN2CCCC2)[C@H](O)c2ccc(OC)c(F)c2)cc1 [Compound 344] | ≤ 100 nM | –
21 | COc1ccc(C(=O)CCCCCC(=O)N[C@H](CN2CCCC2)[C@H](O)c2ccc(OC)c(F)c2)cc1 [Compound 345] | ≤ 100 nM | –
22 | COc1ccc(C(=O)CCCC(=O)N[C@H](CN2CCCC2)[C@H](O)c2ccc(C)c(F)c2)cc1 [Compound 346] | 100 to 1000 nM | –
23 | Cc1ccc([C@@H](O)[C@@H](CN2CCCC2)NC(=O)Cc2ccc(OC(F)(F)F)cc2)cc1F [Compound 347] | 100 to 1000 nM | –
24 | CCCCCCCC(=O)N[C@H](CN1CCCC1)[C@H](O)c1ccc(C)c(F)c1 [Compound 348] | 100 to 1000 nM | –
25 | COc1ccc(OCCC(=O)N[C@H](CN2CCCC2)[C@H](O)c2ccc(C)c(F)c2)cc1 [Compound 349] | 100 to 1000 nM | –
26 | COc1ccc(C(=O)CCCCCC(=O)N[C@H](CN2CCCC2)[C@H](O)c2ccc(C)c(F)c2)cc1 [Compound 350] | ≤ 100 nM | –

Row | Compound | IC50 (Table 3 (IC 50 Values)) | other results
27 | COc1ccc(C(=O)CCCCC(=O)N[C@H](CN2CCCC2)[C@H](O)c2ccc(C)c(F)c2)cc1 [Compound 351] | 100 to 1000 nM | –
28 | COc1ccc([C@@H](O)[C@@H](CO)NC(=O)OCc2ccccc2)c(OC)c1 [Compound 352] | 3000 to 10000 nM | –
29 | COc1ccc(C(=O)CCCCC(=O)N[C@H](CN2CCCC2)[C@H](O)c2ccc(OC)cc2OC)cc1 [Compound 353] | 100 to 1000 nM | –
30 | COCCc1ccc([C@@H](O)[C@@H](CN2CCCC2)NC(=O)Cc2ccc(OC(F)(F)F)cc2)cc1 [Compound 354] | 100 to 1000 nM | –
31 | COCCc1ccc([C@@H](O)[C@@H](CN2CCCC2)NC(=O)CCCC(=O)c2ccc(OC)cc2)cc1 [Compound 355] | 1000 to 3000 nM | –
32 | COCCc1ccc([C@@H](O)[C@@H](CN2CCCC2)NC(=O)CCOc2ccc(OC)cc2)cc1 [Compound 356] | 1000 to 3000 nM | –
33 | COCCc1ccc([C@@H](O)[C@@H](CN2CCCC2)NC(=O)CCCCC(=O)c2ccc(OC)cc2)cc1 [Compound 357] | 100 to 1000 nM | –
34 | COc1ccc(C(=O)CCCCCC(=O)N[C@H](CN2CCCC2)[C@H](O)c2ccc(Cl)s2)cc1 [Compound 358] | ≤ 100 nM | –
35 | COc1ccc(C(=O)CCCC(=O)N[C@H](CN2CCCC2)[C@H](O)c2ccc(Cl)s2)cc1 [Compound 359] | 100 to 1000 nM | –
36 | CCCCCCCC(=O)N[C@H](CN1CCCC1)[C@H](O)c1sccc1C [Compound 360] | 100 to 1000 nM | –
37 | COc1ccc(C(=O)CCCC(=O)N[C@H](CN2CCCC2)[C@H](O)c2sccc2C)cc1 [Compound 361] | 3000 to 10000 nM | –
38 | COc1ccc(C(=O)CCCCC(=O)N[C@H](CN2CCCC2)[C@H](O)c2sccc2C)cc1 [Compound 362] | 3000 to 10000 nM | –
39 | COc1ccc(OCCC(=O)N[C@H](CN2CCCC2)[C@H](O)c2sccc2C)cc1 [Compound 363] | 100 to 1000 nM | –
40 | COc1ccc(C(=O)CCCCC(=O)N[C@H](CN2CCCC2)[C@H](O)c2ccc(OCCOc3ccc(C#N)cc3)cc2)cc1 [Compound 364] | ≤ 100 nM | –
41 | COc1ccc(C(=O)CCCCC(=O)N[C@H](CN2CCCC2)[C@H](O)c2ccc(OCCOc3cccc(C(F)(F)F)c3)cc2)cc1 [Compound 365] | ≤ 100 nM | –
42 | COc1ccc(C(=O)CCCCC(=O)N[C@H](CN2CCCC2)[C@H](O)c2ccc(OCCOc3ccccc3F)cc2)cc1 [Compound 366] | ≤ 100 nM | –
43 | COc1ccc(C(=O)CCCCC(=O)N[C@H](CN2CCCC2)[C@H](O)c2ccc(OCCCOc3ccccc3F)cc2)cc1 [Compound 367] | ≤ 100 nM | –
44 | CCCCCCOc1ccc([C@@H](O)[C@@H](CN2CC[C@H](O)C2)NC(=O)CCCCC(=O)c2ccc(OC)cc2)cc1 [Compound 368] | ≤ 100 nM | –
45 | CCCCCCOc1ccc([C@@H](O)[C@@H](CN2CC[C@@H](F)C2)NC(=O)CCCCC(=O)c2ccc(OC)cc2)cc1 [Compound 369] | ≤ 100 nM | –
46 | CCCCCCOc1ccc([C@@H](O)[C@@H](CN2C3CCC2CC3)NC(=O)CCCCC(=O)c2ccc(OC)cc2)cc1 [Compound 370] | ≤ 100 nM | –
47 | CCCCCCOc1ccc([C@@H](O)[C@@H](CN2CC[C@@H](F)C2)NC(=O)CCCCCC(=O)c2ccc(OC)cc2)cc1 [Compound 371] | ≤ 100 nM | –
48 | CCCCCCOc1ccc([C@@H](O)[C@@H](CN2CC[C@H](O)C2)NC(=O)CCCCCC(=O)c2ccc(OC)cc2)cc1 [Compound 372] | ≤ 100 nM | –
49 | COc1ccc(C(=O)CCCCC(=O)N[C@H](CN2CCCC2)[C@H](O)c2ccc(OCCOc3c(C)cccc3C)cc2)cc1 [Compound 373] | ≤ 100 nM | –
50 | CCCCCCOc1ccc([C@@H](O)[C@@H](CN2C3CCC2CC3)NC(=O)CCCCCC(=O)c2ccc(OC)cc2)cc1 [Compound 374] | ≤ 100 nM | –
51 | COc1ccc(C(=O)CCCCC(=O)N[C@H](CN2CC[C@H](O)C2)[C@H](O)c2ccc(OC(C)C)cc2)cc1 [Compound 375] | 100 to 1000 nM | –
52 | COc1ccc(C(=O)CCCCC(=O)N[C@H](CN2C3CCC2CC3)[C@H](O)c2ccc(OC(C)C)cc2)cc1 [Compound 376] | ≤ 100 nM | –
